Values joined by “and” are separate entries in the source; they are usually repeats but may differ in a detail not shown here. Identical values can stand only once. Toxic doses and inconclusive results are not listed. How the source made its calls: active means survival T/C of 150% or more; inactive means T/C below 125% in these data.
System: CD2F1 mice, L1210 leukemia ip, survival T/C
Assay: NCI In Vivo Anticancer Drug Screen. Data for tumor model L1210 Leukemia (intraperitoneal) in CD2F1 (CDF1) mice
Conditions: higher = longer survival
Procedure, shortened: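 Ratio T/C, where T is the treated-group value and C the vehicle-dosed control value, from mice implanted with a transplantable tumor.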

[1] = endpoint: mean survival time, dose: 100.0 mg/kg/injection, schedule: Q04DX003 (ip), vehicle: saline with Tween-80
[2] = endpoint: mean survival time, dose: 200.0 mg/kg/injection, schedule: Q04DX003 (ip), vehicle: saline with Tween-80
[3] = endpoint: mean survival time, dose: 25.0 mg/kg/injection, schedule: Q04DX002 (ip), vehicle: saline with Tween-80
[4] = endpoint: mean survival time, dose: 50.0 mg/kg/injection, schedule: Q01DX009 (ip), vehicle: saline with Tween-80
[5] = endpoint: mean survival time, dose: 100.0 mg/kg/injection, schedule: Q01DX009 (ip), vehicle: saline with Tween-80
[6] = endpoint: mean survival time, dose: 200.0 mg/kg/injection, schedule: Q01DX009 (ip), vehicle: saline with Tween-80
[7] = endpoint: mean survival time, dose: 100.0 mg/kg/injection, schedule: Q01DX001 (ip), vehicle: saline with Tween-80
[8] = endpoint: mean survival time, dose: 200.0 mg/kg/injection, schedule: Q01DX001 (ip), vehicle: saline with Tween-80

Measured: T/C

CC(=O)c1ccc(N=C2C=CC(=O)O2)cc1
inactive: [1] 102 % of control | [2] 96 % of control | endpoint: mean survival time, dose: 400.0 mg/kg/injection, schedule: Q04DX003 (ip), vehicle: saline with Tween-80 96 % of control

O=C(NCCNC(=O)c1ccccc1)c1ccccc1
inactive: endpoint: mean survival time, dose: 6.25 mg/kg/injection, schedule: Q04DX002 (ip), vehicle: saline with Tween-80 97 % of control | endpoint: mean survival time, dose: 12.5 mg/kg/injection, schedule: Q04DX002 (ip), vehicle: saline with Tween-80 93 % of control | [3] 93 % of control | endpoint: mean survival time, dose: 50.0 mg/kg/injection, schedule: Q04DX002 (ip), vehicle: saline with Tween-80 89 % of control | endpoint: median survival time, dose: 50.0 mg/kg/injection, schedule: Q04DX002 (ip), vehicle: saline with Tween-80 94 % of control

Cc1ccccc1N=C=S
inactive: endpoint: mean survival time, dose: 12.5 mg/kg/injection, schedule: Q01DX009 (ip), vehicle: saline with Tween-80 98 % of control | endpoint: mean survival time, dose: 25.0 mg/kg/injection, schedule: Q01DX009 (ip), vehicle: saline with Tween-80 96 % of control | [4] 106 % of control

CCC(=O)c1ccc2c(c1)N(CCCN1CCN(CCO)CC1)c1ccccc1S2
inactive: endpoint: mean survival time, dose: 25.0 mg/kg/injection, schedule: Q04DX003 (ip), vehicle: Klucel (hydroxypropylcellulose) (HPC) 97 % of control | endpoint: mean survival time, dose: 100.0 mg/kg/injection, schedule: Q04DX003 (ip), vehicle: Klucel (hydroxypropylcellulose) (HPC) 116 % of control

OCC1OC(c2nnc3c4ccccc4cnn23)C(O)C1O (configuration not stated)
inactive: endpoint: mean survival time, dose: 10.94 mg/kg/injection, schedule: Q01DX005 (ip), vehicle: water 100 % of control | endpoint: mean survival time, dose: 11.25 mg/kg/injection, schedule: Q01DX005 (ip), vehicle: water 96 % of control | endpoint: mean survival time, dose: 21.88 mg/kg/injection, schedule: Q01DX005 (ip), vehicle: water 94 % of control | endpoint: mean survival time, dose: 22.5 mg/kg/injection, schedule: Q01DX005 (ip), vehicle: water 94 % of control | endpoint: mean survival time, dose: 43.75 mg/kg/injection, schedule: Q01DX005 (ip), vehicle: water 93 % of control | endpoint: mean survival time, dose: 45.0 mg/kg/injection, schedule: Q01DX005 (ip), vehicle: water 90 % of control | endpoint: mean survival time, dose: 87.5 mg/kg/injection, schedule: Q01DX005 (ip), vehicle: water 94 % of control | endpoint: mean survival time, dose: 90.0 mg/kg/injection, schedule: Q01DX005 (ip), vehicle: water 96 % of control | endpoint: mean survival time, dose: 175.0 mg/kg/injection, schedule: Q01DX005 (ip), vehicle: water 93 % of control | endpoint: mean survival time, dose: 180.0 mg/kg/injection, schedule: Q01DX005 (ip), vehicle: water 94 % of control

CC1CCC(=O)O1 (configuration not stated)
inactive: endpoint: mean survival time, dose: 100.0 mg/kg/injection, schedule: Q04DX002 (ip), vehicle: saline 98 % of control | endpoint: mean survival time, dose: 200.0 mg/kg/injection, schedule: Q04DX002 (ip), vehicle: saline 98 % of control | endpoint: mean survival time, dose: 400.0 mg/kg/injection, schedule: Q04DX002 (ip), vehicle: saline 98 % of control

COc1ccc(OC)c(NC(=O)NNc2ccc([N+](=O)[O-])cc2[N+](=O)[O-])c1
inactive: [5] 88 % of control | [6] 91 % of control

COc1ccc(CCNC(C)Cc2ccc(OC)c(OC)c2)cc1OC (configuration not stated)
inactive: endpoint: mean survival time, dose: 12.5 mg/kg/injection, schedule: Q01DX009 (ip), vehicle: water 104 % of control | endpoint: mean survival time, dose: 25.0 mg/kg/injection, schedule: Q01DX009 (ip), vehicle: water 101 % of control | endpoint: mean survival time, dose: 50.0 mg/kg/injection, schedule: Q01DX009 (ip), vehicle: water 103 % of control

CCC1Cc2c([nH]c(=O)n(C)c2=O)O1 (configuration not stated)
inactive: endpoint: mean survival time, dose: 100.0 mg/kg/injection, schedule: Q01DX001 (ip), vehicle: saline 97 % of control | endpoint: mean survival time, dose: 200.0 mg/kg/injection, schedule: Q01DX001 (ip), vehicle: saline 97 % of control | endpoint: mean survival time, dose: 400.0 mg/kg/injection, schedule: Q01DX001 (ip), vehicle: saline 97 % of control

O=C(COc1ccccc1)NC(=S)Nc1ccc(Cl)c(Cl)c1
inactive: [3] 97 % of control and 105 % of control | endpoint: mean survival time, dose: 50.0 mg/kg/injection, schedule: Q01DX001 (ip), vehicle: saline with Tween-80 101 % of control | [4] 98 % of control and 102 % of control | endpoint: mean survival time, dose: 50.0 mg/kg/injection, schedule: Q04DX003 (ip), vehicle: saline with Tween-80 98 % of control | [7] 101 % of control | [5] 98 % of control and 106 % of control | [1] 96 % of control | [8] 95 % of control | [6] 93 % of control and 96 % of control | [2] 98 % of control

CCOC(=O)C(=O)NCCc1ccc2c(c1)OCO2
inactive: [7] 97 % of control | [8] 95 % of control | endpoint: mean survival time, dose: 400.0 mg/kg/injection, schedule: Q01DX001 (ip), vehicle: saline with Tween-80 100 % of control

Source: PubChem BioAssay AID256 (DTP/NCI, 2004)
